*: point of attachment. NHNH2 = NN*
Key:
Format in all cases: cell-based
Hela cells = test: EGFP mRNA delivery, robotic library screening, HeLa
Protocol: Cells were seeded in a 96 well plate the day before the experiment at a concentration of 50,000 cell/mL (100 μL/w) in DMEM+10% FBS+1% Gln-Abt. For robotic library screening, the delivery of EGFP-mRNA (from TriLink, fully substituted with 5-methoxyuridine, capped and polyadenylated; TriLink, CleanCap® EGFP mRNA (5moU), ref. L-7201) in six different cell lines was performed. Amphiphilic molecule stock solutions were prepared in DMSO as described above and diluted in DMEM to afford a range of concentrations. The solutions of EGFP-mRNA/amphiphilic molecule complexes were freshly prepared prior to the transfection experiments. 35 μL of the corresponding amphiphile were added to 10 μL of a solution of EGFP-mRNA at 10 ng/μL in DMEM. The mixture was shaken for 30 min at room temperature before the addition to the cells. The cell medium was aspirated, and cells were washed with PBS twice. Cells were covered with 39 μL of DMEM and 11 μL of the complex's solution were added to the cells and incubated for 4 h (final concentration of peptide=2.5, 5 and 10 μM; final concentration of EGFP-mRNA=25 ng/well). After the incubation, the medium was replaced by 100 μL of fresh DMEM supplemented with 10% FBS. The total EGFP fluorescence was quantified after 72 h in a well plate reader. Amphiphile transfection efficiency was compared and normalized to Lipofectamine® MessengerMax efficiency (value of 1 in Tables 1-5 and 7; double underlined numbers). All experiments were done in triplicate.
Tables 1-7: RLuc (pDNA) or EGFP (mRNA) expression levels were normalized to Lipofectamine reagents (value=1) and expressed as fold-times signal increase. In the case of siRNA, the siRNA treated cells fluorescence was compared with siMOCK control fluorescence, while Cas9-RNP mediated knockout was measured against the fluorescence of untreated cells. In both siRNA and Cas9-RNP, values are expressed as % fluorescence reduction. Amphiphile concentration was 5 μM in all cases. All experiments were performed in triplicate.
Tables 14-19 show the mean (triplicates) fluorescence intensity measured after the transfection of EGFP mRNA by different amphiphiles at different concentrations in a variety of cell lines. Background fluorescence values, accounted by untreated control cells, were subtracted for processing.

[1] = test system: HCT116 cells expressing EGFP; test: Cas9-RNP delivery against EGFP (gene editing, plate reader), HCT116
Protocol: To generate an EGFP expressing HeLa cell line, HeLa cells were transfected with EGFP pDNA (pEGFP-C1, Clontech) and stable transfectants were selected with 400 μg/mL of G-418 (Millipore). Green clones were selected by epifluorescence microscopy and tested for EGFP expression stability through several passages. […] All other EGFP-expressing cell lines were obtained in a similar way from parent non-EGFP-expressing cell lines.
Cells expressing EGFP were seeded in a 96 well plate the day before the experiment at a concentration of 50,000 cell/mL (100 μL/w) in DMEM+10% FBS+1% Gln-Abt. For robotic library screening, the delivery of Cas9-RNP against EGFP (RNP designed to knock-out the gene encoding for the enhanced green fluorescent protein (EGFP)) was performed. For RNP assembly, 9.2 μL of crRNA and 9.2 μL of tracrRNA were mixed in 211.6 μL of Nuclease-Free Duplex Buffer (IDT), incubated for 5 min at 95° C. and slowly cooled at rt (see I. Lostalé-Seijo, et al. Peptide/Cas9 nanostructures for ribonucleoprotein cell membrane transport and gene edition, Chem. Sci., 2017). Cas9 protein was dissolved in DMEM at a final concentration of 4 μM and equal volumes of the RNA complex and Cas9 were mixed and incubated for 5 min at rt. 75 μL of the corresponding amphiphile concentrations were added to 5 μL of RNP at 2 μM. The mixture was shaken for 30 min at room temperature before the addition to the cells. The cell medium was aspirated, and cells were washed twice with PBS. Cells were covered with 30 μL of DMEM and 20 μL of the RNP/amphiphile complexes were added to the cells (final peptide concentrations=2.5, 5 and 10 μM; final Cas9-RNP concentration=50 nM) and incubated for 4 h. After the incubation, the medium was replaced by 100 μL of fresh DMEM supplemented with 10% FBS. The total EGFP fluorescence was quantified after 72 h in a plate reader (FIG. 2, Table 1 (right) and Table 6). All experiments were done in triplicate. […]
Tables 26-31 show the mean (triplicates) percentage of gene editing, accounted by GFP fluorescence intensity decrease (% of reduction), measured after the transfection of Cas9-RNP by different amphiphiles at different concentrations in a variety of cell lines. Background values, accounted by untreated control cells, were subtracted for processing.

Hek293 cells = test: RLuc pDNA delivery, robotic library screening, Hek293

Ac-RK*LRRLLRK*-NH2 (Ac-RK(NHNH2)LRRLLRK(NHNH2)-NH2; not fully specified; printed as Ac-RK*LRRLLRK*-NH2; also: K*2,K*9: native or modified lysine (ε-amide to a linker)) [Peptide 9.2]
mean fluorescence intensity (EGFP mRNA) (Hela cells; HeLa, Dodecanal, 2.5 μM): 933
mean fluorescence intensity (EGFP mRNA) (Hela cells; HeLa, Dodecanal, 5 μM): 390
mean fluorescence intensity (EGFP mRNA) (Hela cells; HeLa, Myristoleyl, 2.5 μM): 1738
mean fluorescence intensity (EGFP mRNA) (Hela cells; Hela, Myristoleyl, 5 μM): 585
percentage of gene editing, GFP fluorescence intensity decrease (% of reduction) ([1]; Dodecanal, 5 μM): −34%
percentage of gene editing, GFP fluorescence intensity decrease (% of reduction) ([1]; Dodecanal, 10 μM): −15%
percentage of gene editing, GFP fluorescence intensity decrease (% of reduction) ([1]; Dodecanal, 15 μM): −22%
mean luminescent intensity (RLuc pDNA) (Hek293 cells; Dodecanal, 10 μM): 32272 RLU
mean luminescent intensity (RLuc pDNA) (Hek293 cells; Dodecanal, 15 μM): 18149 RLU
mean luminescent intensity (RLuc pDNA) (Hek293 cells; Oleyl, 15 μM): 435 RLU

Ac-RRLK*RLLRRLK*RLK*RRL-NH2 (Ac-RRLK(NHNH2)RLLRRLK(NHNH2)RLK(NHNH2)RRL-NH2; not fully specified; printed as Ac-RRLK*RLLRRLK*RLK*RRL-NH2; also: K*4,K*11,K*14: native or modified lysine (ε-amide to a linker)) [Peptide 17.3]
mean fluorescence intensity (EGFP mRNA) (Hela cells; HeLa, Dodecanal, 5 μM): 43
mean fluorescence intensity (EGFP mRNA) (Hela cells; HeLa, Myristoleyl, 2.5 μM): 64
mean fluorescence intensity (EGFP mRNA) (Hela cells; HeLa, Petroselinyl, 10 μM): −16
mean fluorescence intensity (EGFP mRNA) (Hela cells; Hela, Dodecanal, 10 μM): 52
mean fluorescence intensity (EGFP mRNA) (Hela cells; Hela, Myristoleyl, 5 μM): 6
mean fluorescence intensity (EGFP mRNA) (Hela cells; Hela, Myristoleyl, 10 μM): 76
mean fluorescence intensity (EGFP mRNA) (Hela cells; Hela, Petroselinyl, 5 μM): 25
percentage of gene editing, GFP fluorescence intensity decrease (% of reduction) ([1]; Dodecanal, 5 μM): −2%
percentage of gene editing, GFP fluorescence intensity decrease (% of reduction) ([1]; Dodecanal, 15 μM): 22%
percentage of gene editing, GFP fluorescence intensity decrease (% of reduction) ([1]; Myristoleyl, 15 μM): 26%
percentage of gene editing, GFP fluorescence intensity decrease (% of reduction) ([1]; Petroselinyl, 5 μM): −4%
mean luminescent intensity (RLuc pDNA) (Hek293 cells; Dodecanal, 10 μM): 12692 RLU
mean luminescent intensity (RLuc pDNA) (Hek293 cells; Dodecanal, 15 μM): 3248 RLU
mean luminescent intensity (RLuc pDNA) (Hek293 cells; Myristoleyl, 5 μM): 158771 RLU
mean luminescent intensity (RLuc pDNA) (Hek293 cells; Myristoleyl, 10 μM): 4717 RLU
mean luminescent intensity (RLuc pDNA) (Hek293 cells; Myristoleyl, 15 μM): −110 RLU
mean luminescent intensity (RLuc pDNA) (Hek293 cells; Palmitoleyl, 5 μM): 10403 RLU
mean luminescent intensity (RLuc pDNA) (Hek293 cells; Palmitoleyl, 10 μM): 1319 RLU
mean luminescent intensity (RLuc pDNA) (Hek293 cells; Palmitoleyl, 15 μM): −644 RLU
